According to ChEMBL document CHEMBL4387723, “Ultrasonication-ionic liquid synergy for the synthesis of new potent anti-tuberculosis 1,2,4-triazol-1-yl-pyrazole based spirooxindolopyrrolizidines” (Bioorg Med Chem Lett, 2019):
Converted amounts (≈) assume the structure as drawn.

system: not listed separately; assay: Cytotoxicity against mouse RAW264.7 cells assessed as reduction in cell viability at 25 ug/ml incubated for 48 hrs by MTT assay relative to control; assay type: cell-based; settings: read-out: INH

Structure (SMILES) | cytotoxicity at 48 h, 25 ug/ml
Cc1nn(-c2ccccc2)c(-n2cncn2)c1C1C2CCCN2C2(C(=O)Nc3ccc(Cl)cc32)C1C(=O)c1ccccc1 (stereo unspecified) | 19.8%
Cc1nn(-c2ccccc2)c(-n2cncn2)c1C1C2CCCN2C2(C(=O)Nc3ccccc32)C1C(=O)c1ccc(Br)cc1 (stereo unspecified) | 27.1%
Cc1nn(-c2ccccc2)c(-n2cncn2)c1C1C2CCCN2C2(C(=O)Nc3ccc(Br)cc32)C1C(=O)c1ccc(Cl)cc1 (stereo unspecified) | 22.4%
Cc1nn(-c2ccccc2)c(-n2cncn2)c1C1C2CCCN2C2(C(=O)Nc3ccc(Cl)cc32)C1C(=O)c1ccc([N+](=O)[O-])cc1 (stereo unspecified) | 24.9%
Cc1nn(-c2ccccc2)c(-n2cncn2)c1C1C2CCCN2C2(C(=O)Nc3ccc(Cl)cc32)C1C(=O)c1cccc([N+](=O)[O-])c1 (stereo unspecified) | 19%
Cc1nn(-c2ccccc2)c(-n2cncn2)c1C1C2CCCN2C2(C(=O)Nc3ccc(Br)cc32)C1C(=O)c1ccc([N+](=O)[O-])cc1 (stereo unspecified) | 26.4%
Cc1nn(-c2ccccc2)c(-n2cncn2)c1C1C2CCCN2C2(C(=O)Nc3ccccc32)C1C(=O)c1ccc(Cl)cc1 (stereo unspecified) | 16.9%
Cc1nn(-c2ccccc2)c(-n2cncn2)c1C1C2CCCN2C2(C(=O)Nc3ccc(Br)cc32)C1C(=O)c1cccc([N+](=O)[O-])c1 (stereo unspecified) | 20.1%
Cc1nn(-c2ccccc2)c(-n2cncn2)c1C1C2CCCN2C2(C(=O)Nc3ccc(Cl)cc32)C1C(=O)c1ccc(Cl)cc1 (stereo unspecified) | 17.9%
Cc1nn(-c2ccccc2)c(-n2cncn2)c1C1C2CCCN2C2(C(=O)Nc3ccc(Br)cc32)C1C(=O)c1ccccc1 (stereo unspecified) | 18.6%
Cc1nn(-c2ccccc2)c(-n2cncn2)c1C1C2CCCN2C2(C(=O)Nc3ccc(Br)cc32)C1C(=O)c1ccc(Br)cc1 (stereo unspecified) | 22%
Cc1nn(-c2ccccc2)c(-n2cncn2)c1C1C2CCCN2C2(C(=O)Nc3ccccc32)C1C(=O)c1ccc([N+](=O)[O-])cc1 (stereo unspecified) | 29.6%
COc1ccc(C(=O)C2C(c3c(C)nn(-c4ccccc4)c3-n3cncn3)C3CCCN3C23C(=O)Nc2ccc(Cl)cc23)cc1 (stereo unspecified) | 21.6%
Cc1nn(-c2ccccc2)c(-n2cncn2)c1C1C2CCCN2C2(C(=O)Nc3ccc(Cl)cc32)C1C(=O)c1ccc(Br)cc1 (stereo unspecified) | 26.4%

system: Mycobacterium tuberculosis; assay: Antitubercular activity against Mycobacterium tuberculosis H37Rv incubated for 7 days by microplate alamar blue assay; assay type: functional; settings: 168 h

Structure (SMILES) | MIC
Cc1nn(-c2ccccc2)c(-n2cncn2)c1C1C2CCCN2C2(C(=O)Nc3ccc(Cl)cc32)C1C(=O)c1ccccc1 (stereo unspecified) | 0.78 µg/mL (≈ 1.32 µM)
COc1ccc(C(=O)C2C(c3c(C)nn(-c4ccccc4)c3-n3cncn3)C3CCCN3C23C(=O)Nc2ccccc23)cc1 (stereo unspecified) | 12.5 µg/mL (≈ 21.3 µM)
Cc1nn(-c2ccccc2)c(-n2cncn2)c1C1C2CCCN2C2(C(=O)Nc3ccccc32)C1C(=O)c1ccccc1 (stereo unspecified) | > 25 µg/mL
Cc1nn(-c2ccccc2)c(-n2cncn2)c1C1C2CCCN2C2(C(=O)Nc3ccccc32)C1C(=O)c1ccc(Br)cc1 (stereo unspecified) | 1.56 µg/mL (≈ 2.46 µM)
Cc1nn(-c2ccccc2)c(-n2cncn2)c1C1C2CCCN2C2(C(=O)Nc3ccc(Br)cc32)C1C(=O)c1ccc(Cl)cc1 (stereo unspecified) | 1.56 µg/mL (≈ 2.33 µM)
Cc1nn(-c2ccccc2)c(-n2cncn2)c1C1C2CCCN2C2(C(=O)Nc3ccc(Cl)cc32)C1C(=O)c1ccc([N+](=O)[O-])cc1 (stereo unspecified) | 1.56 µg/mL (≈ 2.46 µM)
Cc1nn(-c2ccccc2)c(-n2cncn2)c1C1C2CCCN2C2(C(=O)Nc3ccc(Cl)cc32)C1C(=O)c1cccc([N+](=O)[O-])c1 (stereo unspecified) | 6.25 µg/mL (≈ 9.84 µM)
Cc1nn(-c2ccccc2)c(-n2cncn2)c1C1C2CCCN2C2(C(=O)Nc3ccc(Br)cc32)C1C(=O)c1ccc([N+](=O)[O-])cc1 (stereo unspecified) | 6.25 µg/mL (≈ 9.2 µM)
Cc1nn(-c2ccccc2)c(-n2cncn2)c1C1C2CCCN2C2(C(=O)Nc3ccccc32)C1C(=O)c1ccc(Cl)cc1 (stereo unspecified) | 6.25 µg/mL (≈ 10.6 µM)
Cc1nn(-c2ccccc2)c(-n2cncn2)c1C1C2CCCN2C2(C(=O)Nc3ccccc32)C1C(=O)c1cccc([N+](=O)[O-])c1 (stereo unspecified) | > 25 µg/mL
Cc1nn(-c2ccccc2)c(-n2cncn2)c1C1C2CCCN2C2(C(=O)Nc3ccc(Br)cc32)C1C(=O)c1cccc([N+](=O)[O-])c1 (stereo unspecified) | 6.25 µg/mL (≈ 9.2 µM)
COc1ccc(C(=O)C2C(c3c(C)nn(-c4ccccc4)c3-n3cncn3)C3CCCN3C23C(=O)Nc2ccc(Br)cc23)cc1 (stereo unspecified) | 25 µg/mL (≈ 37.6 µM)
Cc1nn(-c2ccccc2)c(-n2cncn2)c1C1C2CCCN2C2(C(=O)Nc3ccc(Cl)cc32)C1C(=O)c1ccc(Cl)cc1 (stereo unspecified) | 1.56 µg/mL (≈ 2.5 µM)
Cc1nn(-c2ccccc2)c(-n2cncn2)c1C1C2CCCN2C2(C(=O)Nc3ccc(Br)cc32)C1C(=O)c1ccccc1 (stereo unspecified) | 3.12 µg/mL (≈ 4.92 µM)
Cc1nn(-c2ccccc2)c(-n2cncn2)c1C1C2CCCN2C2(C(=O)Nc3ccc(Br)cc32)C1C(=O)c1ccc(Br)cc1 (stereo unspecified) | 1.56 µg/mL (≈ 2.19 µM)
Cc1ccc(C(=O)C2C(c3c(C)nn(-c4ccccc4)c3-n3cncn3)C3CCCN3C23C(=O)Nc2ccccc23)cc1 (stereo unspecified) | > 25 µg/mL
Cc1nn(-c2ccccc2)c(-n2cncn2)c1C1C2CCCN2C2(C(=O)Nc3ccccc32)C1C(=O)c1ccc([N+](=O)[O-])cc1 (stereo unspecified) | 6.25 µg/mL (≈ 10.4 µM)
COc1ccc(C(=O)C2C(c3c(C)nn(-c4ccccc4)c3-n3cncn3)C3CCCN3C23C(=O)Nc2ccc(Cl)cc23)cc1 (stereo unspecified) | 3.12 µg/mL (≈ 5.03 µM)
Cc1ccc(C(=O)C2C(c3c(C)nn(-c4ccccc4)c3-n3cncn3)C3CCCN3C23C(=O)Nc2ccc(Cl)cc23)cc1 (stereo unspecified) | 25 µg/mL (≈ 41.4 µM)
Cc1nn(-c2ccccc2)c(-n2cncn2)c1C1C2CCCN2C2(C(=O)Nc3ccc(Cl)cc32)C1C(=O)c1ccc(Br)cc1 (stereo unspecified) | 1.56 µg/mL (≈ 2.33 µM)
CC[C@@H](CO)NCCN[C@@H](CC)CO [ETHAMBUTOL] | 1.56 µg/mL (≈ 7.64 µM)

system: Mycobacterium tuberculosis; assay: Potency index, ratio of ethambutol MIC to test compound MIC for antitubercular activity against Mycobacterium tuberculosis H37Rv incubated for […] by microplate alamar blue assay; assay type: functional; settings: not given

Structure (SMILES) | Ratio
Cc1nn(-c2ccccc2)c(-n2cncn2)c1C1C2CCCN2C2(C(=O)Nc3ccc(Cl)cc32)C1C(=O)c1ccccc1 (stereo unspecified) | >1
